This is an account of results in patent US20240132431A1, “METHOD FOR ALKYLATING ACIDIC FUNCTIONAL GROUP” (Chugai Seiyaku Kabushiki Kaisha, priority 2021, published 2024).

The test has as its target T1, Bcl-2 protein (Recombinant Human Bcl-2 Protein) (Homo sapiens, UniProt P10415).
T1 construct: purchased Novus NBP2-34889
The test is described as follows: Binding evaluation of mixture library compounds to Bcl-2 using AS-MS (affinity selection mass spectrometry). Conditions: for ASMS ratio (%) n = 1: replicate n = 1; for ASMS ratio (%) n = 1 / ASMS ratio (%) n = 2: ASMS Ratio(%)=(A−C)/B×100; for ASMS ratio (%) n = 2: replicate n = 2. In a few lines:
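Bcl-2 binding is scored from LC/MS signal retained with protein through gel-filtration spin columns, normalised to unfiltered and protein-free controls. Incubation: 20 μM protein, […] per compound, 1 h, 23° C.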

Where [1] appears, read: AS-MS, mixture of 1200 compounds, Bcl-2.
[2] abbreviates: AS-MS on the mixture of 1200 library compounds.

T1 sequence (P10415 whole entry): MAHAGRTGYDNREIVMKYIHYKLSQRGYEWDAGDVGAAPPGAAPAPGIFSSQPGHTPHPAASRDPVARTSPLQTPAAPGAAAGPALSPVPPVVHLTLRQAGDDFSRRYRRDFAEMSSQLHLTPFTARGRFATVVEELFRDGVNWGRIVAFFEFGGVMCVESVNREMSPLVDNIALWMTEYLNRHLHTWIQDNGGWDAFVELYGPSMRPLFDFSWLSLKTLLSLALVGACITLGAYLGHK

For `CCOc1cncc(-c2cc(CN3CCN(c4ccc(C(=O)NS(=O)(=O)C(C)(C)C)cc4)CC3)cc(OC(F)(F)F)c2)c1` [B2L064-01, N-tert-Butylsulfonyl-4-[4-[[3-(5-ethoxypyridin-3-yl)-5-(trifluoromethoxy)phenyl]methyl]piperazin-1-yl]benzamide], the “ASMS ratio (%)” value (n = 1) was 0.0% and the “ASMS ratio (%)” value (n = 2) is listed as 0.0%. Consider `CCOc1cncc(-c2cc(C(=O)N3CCN(c4ccc(C(=O)NS(=O)(=O)CC56CC7CC(CC(C7)C5)C6)nn4)CC3)cc(C(C)(C)C)c2)c1` [B2A016-01, N-(1-Adamantylmethylsulfonyl)-6-[4-[3-tert-butyl-5-(5-ethoxypyridin-3-yl)benzoyl]piperazin-1-yl]pyridazine-3-carboxamide], for which, where the note is “AS-MS, mixture library, Bcl-2”, the “ASMS ratio (%) n = 1” value came out at 0.0% and the “ASMS ratio (%) n = 2” value is reported as 2.5%. On to “6-[4-[[4-(3-Ethoxyphenyl)-2,6-dimethoxyphenyl]methyl]piperazin-1-yl]-N-propylpyridazine-3-carboxamide [B1M021-01]”, for which, under setting [1], the “ASMS ratio (%) n = 1” value is recorded as 0.0% and the “ASMS ratio (%) n = 2” value was determined as 0.0%. Consider `CCOc1cccc(-c2cc(CN3CCN(c4ccc(C(=O)NS(=O)(=O)CCC(F)(F)F)nn4)CC3)cc(OC(F)(F)F)c2)c1` [B2N089-01, 6-[4-[[3-(3-Ethoxyphenyl)-5-(trifluoromethoxy)phenyl]methyl]piperazin-1-yl]-N-(3,3,3-trifluoropropylsulfonyl)pyridazine-3-carboxamide], for which the “ASMS ratio (%)” value (n = 2) stood at 0.0%.

`CCOc1cncc(C#Cc2ccccc2CN2CCN(c3ccc(C(=O)NCC(F)(F)F)nn3)CC2)c1` [B1K096-01, 6-[4-[[2-[2-(5-Ethoxypyridin-3-yl)ethynyl]phenyl]methyl]piperazin-1-yl]-N-(2,2,2-trifluoroethyl)pyridazine-3-carboxamide]: under setting [1], the “ASMS ratio (%) n = 1” value turned out to be 0.0% and the “ASMS ratio (%) n = 2” value turned out to be 0.0%. Consider `CCOc1cccc(-c2cc(CN3CCN(c4ccc(C(=O)NCC56CC7CC(CC(C7)C5)C6)nn4)CC3)cc(OCC)c2)c1` [B1A081-01, N-(1-Adamantylmethyl)-6-[4-[[3-ethoxy-5-(3-ethoxyphenyl)phenyl]methyl]piperazin-1-yl]pyridazine-3-carboxamide], for which, under setting [1], the “ASMS ratio (%) n = 1” value is reported as −10.9% and the “ASMS ratio (%) n = 2” value was −5.5%. Turning to `CCOc1cncc(C#Cc2cncc(C(=O)N3CCN(c4ccc(C(=O)NS(=O)(=O)CC56CC7CC(CC(C7)C5)C6)nn4)CC3)c2)c1` [B2A010-01, N-(1-Adamantylmethylsulfonyl)-6-[4-[5-[2-(5-ethoxypyridin-3-yl)ethynyl]pyridine-3-carbonyl]piperazin-1-yl]pyridazine-3-carboxamide], where the note is “AS-MS, mixture library, Bcl-2”, the “ASMS ratio (%) n = 1” value turned out to be 0.0% and the “ASMS ratio (%) n = 2” value is on record as 0.0%. Consider `CCOc1cncc(-c2cc(CN3CCN(c4ccc(C(=O)NS(=O)(=O)CCC(F)(F)F)nn4)CC3)cc(OCC)c2)c1` [B2N082-01], for which the “ASMS ratio (%)” value is listed as 2.5% (n = 1) and 2.8% (n = 2). Regarding `CCOc1cncc(-c2cc(C(=O)N3CCN(c4ccc(C(=O)NCC(F)(F)F)nn4)CC3)cc(C(C)(C)C)c2)c1` [B1K016-01, 6-[4-[3-tert-Butyl-5-(5-ethoxypyridin-3-yl)benzoyl]piperazin-1-yl]-N-(2,2,2-trifluoroethyl)pyridazine-3-carboxamide], under setting [1], the “ASMS ratio (%) n = 1” value was found to be 0.0% and the “ASMS ratio (%) n = 2” value was determined as 0.0%. As to `CCOc1cccc(-c2ccc(CN3CCN(c4ccc(C(=O)NS(=O)(=O)c5ccc(NCCSc6ccccc6)c([N+](=O)[O-])c5)nn4)CC3)c3ccccc23)c1` [B2Q091-01, 6-[4-[[4-(3-Ethoxyphenyl)naphthalen-1-yl]methyl]piperazin-1-yl]-N-[3-nitro-4-(2-phenylsulfanylethylamino)phenyl]sulfonylpyridazine-3-carboxamide], for the setting “AS-MS, mixture library, Bcl-2”, the “ASMS ratio (%) n = 1” value was found to be 17.2% and the “ASMS ratio (%) n = 2” value is −5.0%. With `CCOc1cccc(-c2cc(CN3CCN(c4ccc(C(=O)N(C)CC56CC7CC(CC(C7)C5)C6)cc4)CC3)cc(OC(F)(F)F)c2)c1` [B3A063-01, N-(1-Adamantylmethyl)-4-[4-[[3-(3-ethoxyphenyl)-5-(trifluoromethoxy)phenyl]methyl]piperazin-1-yl]-N-methylbenzamide], the “ASMS ratio (%) n = 2” value under setting [2] was 390.0%.

Turning to `CCOc1cccc(-c2ccc(CN3CCN(c4ccc(C(=O)NS(=O)(=O)C(C)(C)C)nn4)CC3)cc2C)c1` [B2L073-01, N-tert-Butylsulfonyl-6-[4-[[4-(3-ethoxyphenyl)-3-methylphenyl]methyl]piperazin-1-yl]pyridazine-3-carboxamide], the “ASMS ratio (%)” value reads like this: (n = 1) 0.0%; (n = 2) 0.0%. Take `CCOc1cccc(-c2ccc(C(=O)N3CCN(c4ccc(C(=O)NS(C)(=O)=O)nn4)CC3)cc2F)c1` [B2I005-01, 6-[4-[4-(3-Ethoxyphenyl)-3-fluorobenzoyl]piperazin-1-yl]-N-methylsulfonylpyridazine-3-carboxamide]: under “AS-MS, mixture library, Bcl-2”, the “ASMS ratio (%) n = 1” value is given as 0.0% and the “ASMS ratio (%) n = 2” value amounted to 0.0%. Take `CCOc1cccc(-c2ccc(C(=O)N3CCN(c4ccc(C(=O)N(C)CC56CC7CC(CC(C7)C5)C6)nn4)CC3)cc2C)c1` [B3A003-01, N-(1-Adamantylmethyl)-6-[4-[4-(3-ethoxyphenyl)-3-methylbenzoyl]piperazin-1-yl]-N-methylpyridazine-3-carboxamide]: under setting [2], the “ASMS ratio (%) n = 1” value is given as 6.5% and the “ASMS ratio (%) n = 2” value was 4.9%.

Take `CCOc1cncc(-c2cc(CN3CCN(c4ccc(C(=O)NS(=O)(=O)c5ccc(NCCSc6ccccc6)c([N+](=O)[O-])c5)cc4)CC3)cc(OC(C)C)c2)c1` [B2Q058-01, 4-[4-[[3-(5-Ethoxypyridin-3-yl)-5-propan-2-yloxyphenyl]methyl]piperazin-1-yl]-N-[3-nitro-4-(2-phenylsulfanylethylamino)phenyl]sulfonylbenzamide]: for the setting “AS-MS, mixture library, Bcl-2”, the “ASMS ratio (%) n = 1” value was 3.7% and the “ASMS ratio (%) n = 2” value turned out to be 3.7%. `CCOc1cncc(-c2csc(C(=O)N3CCN(c4ccc(C(=O)NS(=O)(=O)CC56CC7CC(CC(C7)C5)C6)cc4)CC3)c2)c1` [B2A024-01, N-(1-Adamantylmethylsulfonyl)-4-[4-[4-(5-ethoxypyridin-3-yl)thiophene-2-carbonyl]piperazin-1-yl]benzamide]: under “AS-MS, mixture library, Bcl-2”, the “ASMS ratio (%) n = 1” value is listed as −1.9% and the “ASMS ratio (%) n = 2” value is reported as 0.0%. Consider “4-[4-[[3-Ethoxy-5-(3-ethoxyphenyl)phenyl]methyl]piperazin-1-yl]-N-propylbenzamide [B1M009-01]”, for which the “ASMS ratio (%) n = 2” value under setting [1] is recorded as 0.0%. Consider `CCOc1cncc(-c2cc(OC)c(CN3CCN(c4ccc(C(=O)NS(=O)(=O)CCC(F)(F)F)nn4)CC3)c(OC)c2)c1` [B2N086-01, 6-[4-[[4-(5-Ethoxypyridin-3-yl)-2,6-dimethoxyphenyl]methyl]piperazin-1-yl]-N-(3,3,3-trifluoropropylsulfonyl)pyridazine-3-carboxamide], for which the “ASMS ratio (%)” value was 0.0% (n = 1) and 0.0% (n = 2). For `CCOc1cncc(-c2cc(CN3CCN(c4ccc(C(=O)Nc5ccc(OC)cc5)cc4)CC3)cc(OC(F)(F)F)c2)c1` [B1O064-01, 4-[4-[[3-(5-Ethoxypyridin-3-yl)-5-(trifluoromethoxy)phenyl]methyl]piperazin-1-yl]-N-(4-methoxyphenyl)benzamide], under setting [2], the “ASMS ratio (%) n = 1” value amounted to 0.7% and the “ASMS ratio (%) n = 2” value is on record as −4.0%.
